Measured values from patent US7030265B2, “Retinol derivatives, the method of preparations and the uses thereof” (Chebigen, Inc., priority 2001, dated 2006).
Several values for one entry are separate records, joined by “and”; a condition that tells them apart may be missing. Equal values may be shown once.

Legend:
Format in all cases: cell-based
[1] = biological target: T1, retinoic acid receptor γ (Homo sapiens, UniProt P13631); test: RAR activity test, DR5-tk-CAT reporter in Cos-1 cells; details: 1 μM, CAT ELISA, FIG. 3-5
T1 construct: expressed in transfected cells; b135 says HaCAT
T1 sequence (P13631 1-454): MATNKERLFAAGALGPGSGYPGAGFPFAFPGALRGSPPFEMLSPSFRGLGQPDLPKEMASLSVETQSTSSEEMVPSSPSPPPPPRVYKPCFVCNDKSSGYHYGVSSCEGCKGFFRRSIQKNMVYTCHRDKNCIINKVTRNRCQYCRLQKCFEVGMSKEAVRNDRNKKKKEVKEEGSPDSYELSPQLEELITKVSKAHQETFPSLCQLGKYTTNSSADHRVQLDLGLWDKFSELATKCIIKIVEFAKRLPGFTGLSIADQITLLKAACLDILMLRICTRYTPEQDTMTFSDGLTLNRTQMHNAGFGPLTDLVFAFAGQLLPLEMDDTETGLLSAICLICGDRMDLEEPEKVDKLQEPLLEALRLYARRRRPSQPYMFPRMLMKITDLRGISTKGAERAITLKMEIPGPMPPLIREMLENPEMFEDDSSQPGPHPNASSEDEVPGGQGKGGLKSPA

[2] = test system: activation protein-1 (AP-1); test: Activity inhibition test of AP-1, Coll-CAT reporter in Cos-1 cells; details: for lowered the expression of collagenase (Coll-CAT): expression level in the presence of c-Jun expression set as 100%; for effect on AP-1 activity inhibition, compared in words: Coll-CAT
Description: CAT reporter (Coll-CAT) containing collagen promoter including AP-1 transcription factor binding site (TRE) was utilized to transfect Cos-1 cell line. Activity inhibition tests of activation protein-1 (AP-1) similar to the experimental example 6 were proceeded.

[3] = biological target: T2, retinoic acid receptor β (Homo sapiens, UniProt P10826); test: RAR activity test, DR5-tk-CAT reporter in Cos-1 cells; details: 1 μM, CAT ELISA, FIG. 3-5
T2 construct: expressed in transfected cells; b135 says HaCAT
T2 sequence (P10826 1-455): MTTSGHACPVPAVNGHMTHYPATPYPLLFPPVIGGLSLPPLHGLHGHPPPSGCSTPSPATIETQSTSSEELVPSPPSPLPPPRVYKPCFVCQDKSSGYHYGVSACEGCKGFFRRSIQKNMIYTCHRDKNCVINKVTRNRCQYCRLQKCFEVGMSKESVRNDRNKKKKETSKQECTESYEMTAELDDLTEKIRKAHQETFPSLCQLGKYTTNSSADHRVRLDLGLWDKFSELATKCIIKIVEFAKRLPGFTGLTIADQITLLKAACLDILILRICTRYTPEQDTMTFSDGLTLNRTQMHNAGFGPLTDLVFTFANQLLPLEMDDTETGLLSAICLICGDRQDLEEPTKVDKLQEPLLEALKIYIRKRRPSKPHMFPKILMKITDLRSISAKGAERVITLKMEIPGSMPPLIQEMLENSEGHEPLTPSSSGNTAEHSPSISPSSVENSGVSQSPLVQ

[4] = biological target: T3, retinoic acid receptor α (Homo sapiens, UniProt P10276); test: as above; details: 1 μM, CAT ELISA, FIG. 3-5
T3 construct: expressed in transfected cells; b135 says HaCAT
T3 sequence (P10276 1-462): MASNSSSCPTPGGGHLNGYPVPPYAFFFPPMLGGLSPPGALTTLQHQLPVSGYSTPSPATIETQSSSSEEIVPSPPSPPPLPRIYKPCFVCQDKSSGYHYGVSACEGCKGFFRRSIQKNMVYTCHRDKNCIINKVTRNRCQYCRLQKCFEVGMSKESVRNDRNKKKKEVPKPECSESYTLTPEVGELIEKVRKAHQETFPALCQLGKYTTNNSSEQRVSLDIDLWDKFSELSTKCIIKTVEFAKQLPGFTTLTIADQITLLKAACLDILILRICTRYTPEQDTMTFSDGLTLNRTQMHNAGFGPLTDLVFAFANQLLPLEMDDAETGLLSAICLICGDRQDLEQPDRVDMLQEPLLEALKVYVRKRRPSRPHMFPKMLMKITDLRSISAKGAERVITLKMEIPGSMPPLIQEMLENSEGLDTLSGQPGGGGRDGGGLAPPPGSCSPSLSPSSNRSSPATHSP
Description: Recombinant DNA, DR5-tk-CAT consisting of DR5, effectors of retinoic acid receptor/retinoid X receptor, thymine kinase promoter, and CAT (chloramphenicol acetyl transferase) were mixed with the plasmid DNA expressing retinoic acid receptor α, β, ? and utilized to cotransfect skin cancer (HaCAT) cell line with lipofectamine (GibcoBRL). […] The cells were washed with phosphate-buffered saline (PBS), and the proteins were isolated from each cells, and the activity of β-galactosidase and protein contents were measured to determine transfection efficacy, the transcription level of RAR receptor were measured with CAT ELISA.
(§1) All procedures were done as Experimental Example 3.
as §1

[5] = biological target: T3, retinoic acid receptor α; test: RAR activity test, DR5-tk-CAT reporter in HaCAT cells; details: 1 μM, CAT ELISA, FIG. 2 (A)
Description: (§2) To analyze the effects of retinol-(N-formyl-aspartam) on the activity of retinoic acid receptor, skin cancer (HaCAT) cell lines were utilized to measure the activity of retinoic acid receptor/retinoid X receptor.
(§3) Recombinant DNA, DR5-tk-CAT or DR1-tk-CAT consisting of DR1 or DR5, effectors of retinoic acid receptor/retinoid X receptor, thymine kinase promoter, and CAT(chloramphenicol acetyl transferase) were mixed with the plasmid DNA expressing retinoic acid receptor α, β, ? or retinoid X receptor α, β, ? to cotransfect skin cancer (HaCAT) cell line with lipofectamine (GibcoBRL). The cotransfected cell lines were cultured for 1 day on DMEM/10% FBS media, each retinol derivatives (1 μM) were added and cultured for one more day, 5% CO2, 37° C. The cells were washed with phosphate-buffered saline (PBS), and the proteins were isolated from each cells, and the activity of β-galactosidase and protein contents were measured to determine transfection efficacy, the transcription level of RAR or RXR receptor were measured with CAT ELISA (Roche Molecular Biochemical, Mannheim, Germany).
To determine the effect of retinol-(N-formyl-aspartam) on retinoic acid receptors, each retinoic acid receptor (α, β, or ? ) expression vector and activity measuring DR5-tk-CAT plasmid were introduced with liposome. After treating cells with retinol-(N-formyl-aspartam), the cell extracts were isolated. The expression level of CAT were measured with CAT ELISA to determine the effect of retinol-(N-formyl-aspartam) on the activity of retinoic acid receptors.

[6] = test system: activation protein-1 (AP-1); test: Activity inhibition test of AP-1, Coll-CAT reporter in HaCAT cells; details: c-Jun expression, in the presence of retinoic acid receptor α, CAT ELISA, FIG. 6
Experimental: Since the activation protein-1 (c-Jun is the constituent of AP-1) is transcription factor inducing expression of collagenase enzyme, which is a major cause of skin wrinkle, the effect of wrinkle prevention was determined by the activity inhibition test of AP-1.
CAT reporter (Coll-CAT) containing collagen promoter including AP-1 transcription factor binding site (TRE) were utilized to cotransfect skin cancer (HaCAT) cell line. The effect of retinol derivatives on the activity of AP-1 was measured by CAT ELISA. In some cases, the vector expressing c-Jun or retinoic acid receptors were utilized to cotransfect, and the effect of retinol derivatives on the transcription activity of c-Jun was analyzed.
With the assumption of the prepared retinol-(N-formyl-aspartam) derivatives which inhibit the activity of AP-1 causing skin wrinkle, would have the utility for cosmetics, the related investigations were proceeded. Similar to the experiment of retinoic acid receptor, AP-1 (c-jun) expression vector and Coll-CAT plasmid for the activity measurement were introduced into the skin cancer (HaCAT) cell line with liposome. After treating the cells with retinol-(N-formyl-aspartam) derivatives, the cell extracts were isolated. The expression level of CAT were measured with CAT ELISA to determine the effect of retinol-(N-formyl-aspartam) on the activity of the AP-1.

[7] = biological target: T4, retinoid X receptor α (Homo sapiens, UniProt P19793); test: RXR activity test, DR1-tk-CAT reporter in HaCAT cells; details: 1 μM, CAT ELISA, FIG. 2 (B)
T4 construct: expressed in transfected cells; host or cells: HaCAT
T4 sequence (P19793 1-462): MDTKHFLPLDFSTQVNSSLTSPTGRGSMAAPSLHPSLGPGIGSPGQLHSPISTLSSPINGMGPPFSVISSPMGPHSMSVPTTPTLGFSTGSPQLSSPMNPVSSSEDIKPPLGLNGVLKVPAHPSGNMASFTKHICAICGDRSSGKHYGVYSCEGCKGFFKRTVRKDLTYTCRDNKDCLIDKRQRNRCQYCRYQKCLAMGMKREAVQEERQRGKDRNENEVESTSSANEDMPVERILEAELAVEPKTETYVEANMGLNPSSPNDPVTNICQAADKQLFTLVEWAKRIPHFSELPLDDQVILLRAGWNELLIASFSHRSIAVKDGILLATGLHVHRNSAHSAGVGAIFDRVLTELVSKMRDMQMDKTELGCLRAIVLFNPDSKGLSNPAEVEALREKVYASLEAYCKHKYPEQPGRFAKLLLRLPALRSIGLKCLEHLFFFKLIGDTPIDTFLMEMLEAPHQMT
Description: as §2, §3

[8] = biological target: T5, retinoid X receptor β (Homo sapiens, UniProt P28702); test: as above; details: 1 μM, CAT ELISA, FIG. 2 (B)
T5 construct: expressed in transfected cells; host or cells: HaCAT
T5 sequence (P28702 1-533): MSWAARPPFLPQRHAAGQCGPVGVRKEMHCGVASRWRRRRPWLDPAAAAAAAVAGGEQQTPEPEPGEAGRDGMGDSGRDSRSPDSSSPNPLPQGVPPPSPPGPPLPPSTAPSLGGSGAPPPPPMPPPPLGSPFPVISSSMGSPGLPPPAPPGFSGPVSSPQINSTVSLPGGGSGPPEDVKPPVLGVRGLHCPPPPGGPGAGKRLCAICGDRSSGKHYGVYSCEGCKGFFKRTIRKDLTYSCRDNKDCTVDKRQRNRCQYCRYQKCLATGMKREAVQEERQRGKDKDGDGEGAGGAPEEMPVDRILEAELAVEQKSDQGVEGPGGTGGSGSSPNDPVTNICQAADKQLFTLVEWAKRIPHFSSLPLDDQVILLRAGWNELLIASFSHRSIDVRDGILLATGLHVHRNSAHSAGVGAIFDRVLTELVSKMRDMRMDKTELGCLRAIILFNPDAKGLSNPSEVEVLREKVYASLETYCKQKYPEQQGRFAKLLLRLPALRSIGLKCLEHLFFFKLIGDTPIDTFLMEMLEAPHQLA
Description: as §2, §3

[9] = biological target: T6, retinoid X receptor γ (Homo sapiens, UniProt P48443); test: as above; details: 1 μM, CAT ELISA, FIG. 2 (B)
T6 construct: expressed in transfected cells; host or cells: HaCAT
T6 sequence (P48443 1-463): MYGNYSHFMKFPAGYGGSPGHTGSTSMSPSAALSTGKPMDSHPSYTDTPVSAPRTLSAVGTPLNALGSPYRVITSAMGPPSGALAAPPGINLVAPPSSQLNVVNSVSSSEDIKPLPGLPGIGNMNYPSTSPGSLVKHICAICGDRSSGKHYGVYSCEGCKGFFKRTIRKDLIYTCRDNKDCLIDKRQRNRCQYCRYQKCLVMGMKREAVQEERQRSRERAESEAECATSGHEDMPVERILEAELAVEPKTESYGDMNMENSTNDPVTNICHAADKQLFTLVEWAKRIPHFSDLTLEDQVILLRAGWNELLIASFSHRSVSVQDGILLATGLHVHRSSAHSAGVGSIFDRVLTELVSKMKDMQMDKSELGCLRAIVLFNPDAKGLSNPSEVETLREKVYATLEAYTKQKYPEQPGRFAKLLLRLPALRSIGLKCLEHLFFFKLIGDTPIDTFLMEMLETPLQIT
Description: as §2, §3

Row | SMILES | activation of retinoic acid receptor γ [1] | lowered the expression of collagenase (Coll-CAT) [2] | activation of retinoic acid receptor β [3] | activation of retinoic acid receptor α [4] | activation of retinoic acid receptor α [5] | lowered the expression of collagenase (Coll-CAT) [6] | activation of retinoid X receptor α [7] | activation of retinoid X receptor β [8] | activation of retinoid X receptor γ [9] | effect on AP-1 activity inhibition, compared in words [2]
1 | CC1=C(/C=C/C(C)=C/C=C/C(C)=C/COC/C=C(C)/C=C/C=C(C)/C=C/C2=C(C)CCCC2(C)C)C(C)(C)CCC1 [retinol-(retinol), (1E,3E,5E,7E)-9[(2E,4E,6E,8E)-3,7-dimethyl-9-(2,6,6-trimethyl-1-cyclohexenyl)-2,4,6,8-nonatetraenyl]oxy-3,7-dimethyl-1-(2,6,6-trimethyl-1-cyclohexenyl)-1,3,5,7-nonateraene] | weak activation | ~41.5% | weak activation | high activation |  |  |  |  |  | 
2 | CC1=C(/C=C/C(C)=C/C=C/C(C)=C/CO)C(C)(C)CCC1 [retinol] |  | approximately 43% |  | high activation | high activation | approximately 47% | no activation | no activation | no activation | 
3 | CC1=C(/C=C/C(C)=C/C=C/C(C)=C/COC(=O)/C=C(\C)C(=O)OC/C=C(C)/C=C/C=C(C)/C=C/C2=C(C)CCCC2(C)C)C(C)(C)CCC1 [retinol-(mesaconic acid), Di[(2E,4E,6E,8E)-3,7-dimethyl-9-(2,6,6-trimethyl-1-cyclohexenyl)-2.4,6,8-nonatetraenyl] (E)-2-methyl-2-butenedioate] |  | ~30% |  |  |  |  |  |  |  | less effect on AP-1 activity inhibition than retinoic acid or retinol
4 | CC1=C(/C=C/C(C)=C/C=C/C(C)=C/COC(=O)/C=C/C(=O)OC/C=C(C)/C=C/C=C(C)/C=C/C2=C(C)CCCC2(C)C)C(C)(C)CCC1 [retinol-(fumalic acid), Di[(2E,4E,6E,8E)-3,7-dimethyl-9-(2,6,6-trimethyl-1-cyclohexenyl)-2,4,6,8-nonatetraenyl] (E)-2-butenedioate] | weak activation | approximately 42% | weak activation | high activation |  |  |  |  |  | no significant effect on AP-1 activity inhibition than retinoic acid or retinol
5 | CC1=C(/C=C/C(C)=C/C=C/C(C)=C/C(=O)O)C(C)(C)CCC1 [retinoic acid, reference compound] |  | ~50% and ~47.5% |  |  |  | approximately 60% |  |  |  | 
